Results reported in patent US11553713B2, “Polyalcohol, carbohydrate, nucleobase and nucleotide compositions and uses thereof” (Chunbo Zhang, priority 2015, dated 2023).
Several values for one entry are separate records, joined by “and”; a condition that tells them apart may be missing. Identical values can stand only once.

Tests used:
female mosquitoes = test: Efficacy by ingestion: feeder test in 6-liter cage, death rate of female mosquitoes; format: in vivo; details: for death after 24 hours of feeding: fasted 24 hours
Text: Female mosquitoes were used in the experiment because only female mosquitoes bite humans and animals and transmit infectious diseases.
(§1) (2R)-3-fluoropropane-1,2-diol (rFOH) was used as the active agent at various concentrations. A sugar feeder containing 10% sucrose, which is a regular mosquito feeder in a laboratory setting, was used as a regular food source in free choice studies. A free choice study allows the pests to select which feeder to feed on when given two or more choices.
In a two-choice test, a 6-liter cage was supplied with two feeders, one contained 5% rFOH and 10% sucrose in CPDA and the other one contained 10% sucrose without any rFOH or CPDA. 100 female mosquitoes were placed in the cage having the two feeders such that the mosquitoes chose freely which feeder to feed on. After 24 hours of feeding in the cage, over 80% of mosquitoes were dead. […] When the concentration of rFOH was reduced to 1% or 0.15%, its effectiveness remained the same. Over 80% of mosquitoes were dead due to 24 hours of feeding with rFOH.
Subsequent to 24 hours of feeding, rFOH feeder was removed from the cage and a regular sugar feeder (10% sucrose) was provided. In the next day, 5-20% of residual death was observed, indicating a delayed death after rFOH ingestion.
In a further study, mosquitoes were fasted for 24 hours before feeding to ensure that all mosquitoes have the capacity for food intake. […] Thus, fasting is not a cause of mosquito death during a series of experiments.
The experiments determined that 0.1% rFOH was sufficient to achieve 50% death (LD50) under various conditions. In one study, 100 mosquitoes were caged in a 6-liter space and fasted for 24 hours. Subsequently, the mosquitoes were fed on two feeders giving their free choices for 0.1% rFOH containing 10% sucrose in CPDA or 10% sucrose without rFOH for 24 hours, resulting in 43% death. In a parallel study in which the cage was supplied with a single feeder, the 0.1% rFOH feeder containing 10% sucrose in CPDA, which caused 44% of death after 24 hours of feeding.
Similar experiments as disclosed above were performed with various rFOH concentrations under various conditions. The rFOH composition contained 10% sugar in CPDA solution unless specified otherwise.
Similar experiments as disclosed above were performed on female mosquitoes to determine LD50. The rFOH composition contained 10% sugar in CPDA solution unless specified otherwise.
Similar experiments as disclosed above were performed on female mosquitoes using different active agents at various concentrations. The active agent composition contained 10% sugar in CPDA solution unless specified otherwise.

[1] = system: Escherishia coli DH5α transformed with a pcDNA3 plasmid (DH5P); test: MIC test, broth microdilution (CLSI M07-A9); format: cell-based; details: Tryptic soy broth, 37° C. for 24 hrs
Procedure: (§2) The effects of pesticides disclosed herein on various bacteria were tested by determining the minimal inhibitory concentration (MIC) of the pesticides. MIC of an antimicrobial agent is the lowest concentration of the antimicrobial agent that inhibits a given bacterial isolate from multiplying and producing visible growth in the test system. The MIC of rFOH and BrOH was determined in the laboratory by incubating a known quantity of bacteria with a series of dilutions of the active agents and comparing their effects with those of known antimicrobial agents. Table 6 lists the representative bacterial strains and the conditions in MIC tests. Antimicrobial tests of the active agents were conducted according to “Methods for Dilution Antimicrobial Susceptibility Tests for Bacteria That Grow Aerobically” by Clinical and Laboratory Standards Institute (CLSI) (CLSI document M07-A9, 2012). In the study, methicillin/oxacillin resistant Staphylococcus aureus (MRSA) strain (ATCC 43300) was routinely under screening with 4 ug/ml oxacillin. Escherishia coli DH5α was a nonpathogenic laboratory strain. […] When the DH5α/plasmid (DH5P) colony was used, the colony was maintained in the presence of 100 ug/ml ampicillin.
(§3) MIC tests were conducted in 96 well microtiter plates with a total volume of 150 ul broth in each well. The directly colony suspension method (CLSI document M07-A9, 2012) was applied to obtain MIC for antimicrobial tests of the active agents. After colonies were freshly incubated overnight, colonies were suspended in sterile water to adjust the inoculum to a turbidity equivalent to a 0.5 McFarland standard (corresponding to approximately 1.5×10^8 CFU/ml). Within 10 minutes, the inoculum was adjusted by dilution in broth to reach a final concentration of 5×10^5 CFU/ml. A series of various concentrations of the active agents were applied to determine the MIC. In the same microtiter plate, an internal standard formulated by a concentration series of standard antibiotic agent was incubated in parallels to allow for back-to-back comparison.

[2] = system: Methicillin/oxacillin resistant Staphylococcus aureus (MRSA) strain (ATCC 43300); test: MIC test, broth microdilution (CLSI M07-A9); format: cell-based; details: Mueller Hinton broth with 2% NaCl and 50 ug/ml CaCl2, 35° C. for 24 hrs
Procedure: as §2, §3

Escherishia coli DH5α = test: MIC test, broth microdilution (CLSI M07-A9); format: cell-based; details: Tryptic soy broth, 37° C. for 24 hrs
Procedure: as §2, §3

male mosquitoes = test: Efficacy by ingestion: feeder test, death rate of male mosquitoes; format: in vivo; details: 0.1% rFOH, 10% sugar in CPDA, 24 hrs, 24 hrs fasting, sugar feeder provided for free choice
Procedure: as §1
Similar experiments as disclosed above were performed on female mosquitoes and male mosquitoes. The rFOH composition contained 10% sugar in CPDA solution unless specified otherwise.

mosquitoes = test: Toxicity of rFOH by air exposure (container protected with a net to prevent ingestion); format: in vivo
Procedure: The CPDA contained 3.33 g sodium citrate, 0.376 g citric acid, 4.02 g glucose, 0.28 g sodium monobasic phosphate, and 0.346 g adenine in 1 liter of solution. (2R)-3-fluoropropane-1,2-diol (rFOH) was used as the active agent at a concentration of 1%.
100 mosquitoes were placed in a 6-liter cage with a container containing 1% rFOH in 10% sucrose with CPDA for 48 hours at room temperature (25-28° C.). The container was protected with a net to prevent ingestion of rFOH by the mosquitoes. […] The same result was obtained even when 10% of rFOH was used.

SMILES: OC[C@@H](O)CF [rFOH, (2R)-3-fluoropropane-1,2-diol]
- Death Rate (female mosquitoes; 0.1% rFOH, 5% sugar, CPDA, 5% maltose, 24 hrs, 24 hrs fasting, sugar feeder provided for free choice): 54%
- Death Rate (female mosquitoes; 0.1% rFOH, 5% sugar, CPDA, 25% Maple Syrup, 24 hrs, 24 hrs fasting, sugar feeder provided for free choice): 26-47%
- Death Rate (female mosquitoes; 0.1% rFOH, 5% sugar, CPDA, 50% corn syrup, 24 hrs, 24 hrs fasting, sugar feeder provided for free choice): 22-30%
- death after 24 hours of feeding (female mosquitoes; 0.1% rFOH, 10% sucrose in CPDA, free choice with 10% sucrose feeder): 43%
- death after 24 hours of feeding (female mosquitoes; 0.1% rFOH, 10% sucrose in CPDA, single feeder): 44%
- Death Rate (female mosquitoes; 0.1% rFOH, 10% sugar in CPDA, 24 hrs, 24 hrs fasting, sugar feeder not provided): 65%
- Death Rate (female mosquitoes; 0.1% rFOH, 10% sugar in CPDA, 24 hrs, 24 hrs fasting, sugar plus CPDA feeder provided for free choice): 59-80%
- Death Rate (female mosquitoes; 0.1% rFOH, 10% sugar in CPDA, 24 hrs, not fasted, sugar feeder provided for free choice): 64%
- Death Rate (female mosquitoes; 0.1% rFOH, 10% sugar, no CPDA, 24 hrs, 24 hrs fasting, sugar feeder provided for free choice): 44-50%
- total death rate incl. residual death (female mosquitoes; 0.1% rFOH, rFOH feeder replaced by sugar feeder, residual death within next 24 hours included): 46-64%
- death of female mosquitoes after 24 hours of feeding (female mosquitoes; 0.15% rFOH): more than 90%
- Death Rate (female mosquitoes; 0.15% rFOH, 10% sucrose in CPDA, 24 hours feeding, two-choice with 10% sucrose feeder): over 80%
- Death Rate (female mosquitoes; 0.15% rFOH, 10% sugar in CPDA, 24 hrs, 24 hrs fasting, sugar feeder not provided): 95-98%
- Death Rate (female mosquitoes; 0.15% rFOH, 10% sugar in CPDA, 24 hrs, 24 hrs fasting, sugar feeder provided for free choice): 55-80%
- time to death after ingestion (female mosquitoes; 0.15% rFOH, female mosquitoes): 2 to 5 h
- Death Rate (female mosquitoes; 1% rFOH, 10% sucrose in CPDA, 24 hours feeding, two-choice with 10% sucrose feeder): over 80%
- Death Rate (female mosquitoes; 5% rFOH, 10% sugar in CPDA, 24 hrs, not fasted, sugar feeder not provided): 94%
- residual death in the next day (female mosquitoes; after 24 hours feeding rFOH feeder removed, regular sugar feeder (10% sucrose) provided): 5-20%
- rFOH per mosquito corresponding to 0.15% rFOH (female mosquitoes; assuming a female mosquito ingests as much as 0.6 μl of the composition, >90% death): 0.001 mg
- MIC [1]: 0.4%
- MIC [2]: 0.4%
- MIC (Escherishia coli DH5α): 0.4% and 0.43%
- Death Rate (male mosquitoes): 95%
- death of mosquito by air exposure (mosquitoes; 1% rFOH in 10% sucrose with CPDA, container protected with net, 48 hours, room temperature (25-28° C.)): No death
- death of pests when exposed but not ingested (mosquitoes; concentration 100-fold as high as the LD50, not ingested): no death
